Where “and” joins values, the source holds several entries; their conditions need not be identical. Equal entries are not always repeated.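 Exposure lasted 48 hours, with cells grown in 96-well plates and compounds tested at five concentrations. Abbreviation: GI50, concentration required for 50% inhibition of growth. TGI: total growth inhibition.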
Legend:
Assay in all cases: inhibition of tumour cell growth, NCI panel, 48 h
MCF7 breast = tested on: MCF7 breast
ACHN renal = tested on: ACHN renal
A498 renal = tested on: A498 renal
COLO 205 colon = tested on: COLO 205 colon
RXF 393 renal = tested on: RXF 393 renal
SK-MEL-5 melanoma = tested on: SK-MEL-5 melanoma
T-47D breast = tested on: T-47D breast
IGROV1 ovarian = tested on: IGROV1 ovarian
NCI-H460 lung = tested on: NCI-H460 lung
NCI-H23 lung = tested on: NCI-H23 lung

SMILES	TGI (MCF7 breast) [µM]	TGI (ACHN renal)	TGI (A498 renal) [µM]	TGI (COLO 205 colon)	TGI (RXF 393 renal) [µM]	TGI (SK-MEL-5 melanoma)	TGI (T-47D breast) [µM]	TGI (IGROV1 ovarian) [µM]	TGI (NCI-H460 lung) [µM]	TGI (NCI-H23 lung)	GI50 (COLO 205 colon)	GI50 (NCI-H460 lung) [µM]
COc1ccc(/C=C2\C[C@H]3[C@@H]4CCC5=C[C@@H](N6CCCC6)CC[C@]5(C)[C@H]4CC[C@]3(C)[C@H]2O)cc1	5.84	11.7 µM	3.2	3.54 µM	3.29	2.91 µM	14.1	20	8.04	16.3 µM	–	–
CC1(C)N=C(C(N)=O)c2ncn(-c3ccccc3)c2N1	> 100	> 100 µM	> 100	> 100 µM	> 100	> 100 µM	> 100	> 100	> 100	> 100 µM	–	–
CN(NC(=O)CCCl)C1=NCCN1	> 100	> 100 µM	> 100	> 100 µM	> 100	> 100 µM	> 100	> 100	> 100	> 100 µM	–	–
COc1cc(CCCOC(=O)/C=C/c2ccc(O)c(O)c2)cc(O)c1O	69.4	> 100 µM	> 100	> 100 µM	> 100	> 100 µM	74.6	> 100	> 100	> 100 µM	–	–
CC1(C2(C)OC(=O)c3ccccc32)OC(=O)c2ccccc21 (configuration not stated)	> 100	> 100 µM	> 100	> 100 µM	> 100	> 100 µM	> 100	> 100	> 100	> 100 µM	–	–
Cc1c(CCOC=O)c(=O)[nH]c2nncn12	> 100	> 100 µM	> 100	> 100 µM	> 100	> 100 µM	> 100	> 100	> 100	> 100 µM	–	–
C[C@]12CC[C@@H]3c4cc(OCC(F)(F)F)c(O)cc4C(=O)C[C@H]3[C@@H]1CC[C@@H]2O	> 100	> 100 µM	> 100	> 84.5 µM	58.5	> 82.8 µM	> 100	> 100	> 100	> 100 µM	–	–
CCCCCNc1nonc1N	> 100	> 100 µM	> 100	> 100 µM	> 100	> 100 µM	> 100	> 100	> 100	> 100 µM	–	–
Cn1c(=O)cc(NCc2ccc(Cl)cc2)[nH]c1=O	> 100	> 100 µM	> 100	> 100 µM	> 100	> 100 µM	> 100	> 100	> 100	> 100 µM	–	–
COc1ccc(-c2csc(=Nc3ccccc3)n2CC(O)c2ccc([N+](=O)[O-])cc2)cc1 (configuration not stated)	> 100	> 100 µM	> 100	> 100 µM	> 100	> 100 µM	> 100	> 100	> 100	> 100 µM	–	–
CC(N)C(C)Cc1ccccc1 (configuration not stated)	> 100	> 100 µM	> 100	> 100 µM	> 100	> 100 µM	> 100	> 100	> 100	> 100 µM	–	–
CCCc1c(OC)c(=O)c2c(OC)cc(OC)c3c4c(OC)cc(OC)c5c(=O)c(OC)c(CCC)c(c1c23)c54	46.6	29.3 µM	37.1	27.2 µM	69.1	22.6 µM	20.6	34.8	34.5	29.5 µM	–	–
CCNC1(c2cccc(C)c2)OC(C)(C)c2cccc3cccc1c23 (configuration not stated)	34.9	32.4 µM	32.2	34 µM	32.1	34.8 µM	> 100	37.5	30	34 µM	–	–
CCCCn1c(C)c(C(=O)OCC)s/c1=N/Nc1nc2ccccc2nc1-c1ccccc1	> 100	> 100 µM	> 100	> 100 µM	> 100	> 100 µM	> 100	> 100	> 100	> 100 µM	–	–
CC(C)C1(C)N=C(C(F)(F)F)c2cc(C(=O)C(F)(F)F)c3ccccc3c2N1 (configuration not stated)	14.7	12 µM	28.7	15.8 µM	10.1	25.9 µM	11.4	3.28	14.6	8.12 µM	–	–
CC(C)NC(=O)CN1CCN(C2=CC(=O)c3c(O)ccc(O)c3C2=O)CC1	9.35	54.1 µM	46	9.64 µM	33.2	7.78 µM	24.7	28.4	29.1	24.3 µM	–	–
O=C1C(CN2CCCCC2)CCCC1CN1CCCCC1 (configuration not stated)	7.87	34 µM and 39.3 µM	> 100	> 56.9 µM and 16.1 µM	31.6	> 31.6 µM and 47.6 µM	3.74	> 100	> 100	> 68.4 µM and 55.8 µM	25.5 µM and 8.41 µM	> 100

SMILES	TGI (MCF7 breast) [µM]	TGI (ACHN renal)	TGI (A498 renal) [µM]	TGI (COLO 205 colon)	TGI (RXF 393 renal) [µM]	TGI (SK-MEL-5 melanoma)	TGI (T-47D breast) [µM]	TGI (IGROV1 ovarian) [µM]	TGI (NCI-H460 lung) [µM]	TGI (NCI-H23 lung)	GI50 (COLO 205 colon)	GI50 (NCI-H460 lung) [µM]
CCOC(=O)CCC(NC(=O)c1ccc(Oc2nc3ccc(C(F)(F)F)cc3nc2-c2ccccc2)cc1)C(=O)OCC (configuration not stated)	> 100	> 100 µM	> 31.6	> 100 µM	55.4	> 100 µM	> 100	> 100	> 100	> 79.2 µM	–	–
S=C(N/N=C(/c1ccccc1)c1ccccn1)Nc1ccccc1Cl	6.89	9.46 µM	7.19	2.31 µM	4.24	2.63 µM	0.857	7.84	6.24	16.7 µM	–	–
CC(C)(C)c1nc2c(o1)C(=O)c1ccccc1C2=O	1.35	5.69 µM	11.5	8.86 µM	5.54	2.9 µM	3.97	6.04	8.19	1.78 µM	–	–
CC(C)(C)N(Cc1ccc2c(c1)OCO2)C(=O)/C=C\S(=O)c1ccccc1 (configuration not stated)	14.2	15.2 µM	21.4	8.75 µM	8.22	12.9 µM	14.3	13.3	16.9	8.79 µM	–	–
COc1ccc2nc3cccc([N+](=O)[O-])c3c(NCCO)c2c1	0.296	0.0504 µM	0.117	0.0146 µM	0.0274	0.0614 µM	0.805	0.479	0.0233	0.0624 µM	–	–
O=C(O)C1CCCN1Cc1cc2ccccc2c2ccccc12 (configuration not stated)	> 100	> 100 µM	> 100	> 100 µM	> 100	> 100 µM	> 100	> 100	> 100	> 100 µM	–	–
CC(=O)C(=[N+]=[N-])C(=O)OC(C)(C)C#N	> 10	> 10 µM	> 10	> 10 µM	> 10	> 10 µM	> 10	> 10	> 10	> 10 µM	–	–
CC1CC[C@@]2(OC1)OC1C[C@H]3[C@@H]4C/C(=N\N(C)C)[C@@]5(O)CC(O)CC[C@]5(C)[C@H]4CC[C@]3(C)C1[C@@H]2C (some centres not stated)	> 100	> 100 µM	> 100	> 100 µM	61.2	> 100 µM	> 100	> 100	> 100	> 100 µM	–	–
CN(C)CCNc1ccc2c(=O)n(CCN(C)C)c(=O)n3c4ccc([N+](=O)[O-])cc4c(=O)c1c23	1.04	3.83 µM	5.55	2.12 µM	0.996	2.23 µM	6.89	1.29	1.53	0.777 µM	–	–
O=C1/C(=C\c2cccc(Oc3ccccc3)c2)S(=O)(=O)C(c2ccccc2)N1c1ccc(Cl)cc1 (configuration not stated)	62.9	36.9 µM	> 100	28.2 µM	29.4	30.5 µM	29.9	33.2	> 100	> 100 µM	–	–
COc1cc(C2c3cc4c(cc3OC(Nc3ccc(C(=O)O)cc3)C2C)OCO4)cc(OC)c1OC (configuration not stated)	40	> 68.6 µM	> 100	0.518 µM	92	0.522 µM	> 100	> 100	> 100	> 68.7 µM	–	–
CC1=C2C(=O)[C@H]3[C@@H](CC=C4C[C@@H](O)CC[C@@]43C)[C@@H]2CC[C@]12O[C@@H]1C[C@H](C)CN[C@H]1[C@H]2C	> 100	> 56.3 µM	> 57.9	> 100 µM	> 53	> 61.9 µM	> 100	> 96.4	> 65	> 58 µM	–	–
CN(C)c1ccc(/C=C(\C#N)C(N)=C(C#N)C#N)cc1	> 100	> 100 µM	> 100	> 100 µM	> 100	> 100 µM	> 100	> 100	> 100	> 100 µM	–	–
C[C@H](Nc1c(O)c2c(c(O)c1Cl)C(=O)C=CC2=O)C(=O)Nc1ccc([N+](=O)[O-])cc1	3.42	9.31 µM	4.8	2.97 µM	3.04	3.14 µM	> 10	4.22	6.29	4.45 µM	–	–
CC(C)(C)c1ccc(-c2nc3ccc([N+](=O)[O-])cc3c(=O)o2)cc1	89.2	90.5 µM	73.9	71.9 µM	96.7	74.9 µM	> 100	> 100	> 100	78.7 µM	–	–
O=C/C(=C(/Br)I)c1ccccc1	2.57	9.63 µM	33.9	14.3 µM	7.2	13.8 µM	3.85	12.3	26.4	12.7 µM	–	–
N#Cc1c(-c2ccc([N+](=O)[O-])cc2)cc(-c2ccc(Nc3ccnc4cc(C(F)(F)F)ccc34)cc2)nc1N	10.7	> 68.8 µM	> 71.3	> 75.9 µM	51.7	> 83.3 µM	28.8	29	> 66.5	> 62.3 µM	–	–

From PubChem BioAssay (NCI)
